The record followed here is publication PMC11949107, “Polyunsaturated fatty acids and their endocannabinoid-related metabolites activity at human TRPV1 and TRPA1 ion channels expressed in HEK-293 cells” (PeerJ, 2025).

SMILES strings stand for the structures. Where “and” joins values, the source holds several entries; their conditions need not be identical. Equal entries are not always repeated. Where two headings read alike, the source gives them in different places.

What is called Emax is the size of the effect at its maximum, as opposed to the concentration needed.

The target in assay [1] is T1, human TRPV1 (Homo sapiens, UniProt Q8NER1).
T1 construct: Life Technologies (cells); host or cells: Flp-In T-REx HEK-293
As to the kind of experiment: PMA (phorbol ester) potentiation of TRPV1 responses in HEK-293 TRPV1 cells. On the set-up: key to Drugs alone, individual experiments: change in [Ca]i as % of pre-drug baseline. It is filed as cell-based. The procedure:
(§1) Intracellular calcium [Ca]i levels were assessed using the calcium 5 kit from Molecular Devices (# R8186, Sunnyvale, CA, USA) on a FlexStation 3 Microplate Reader (Molecular Devices, Sunnyvale, CA, USA). […] Probenecid (cat # 50027; Biotium) which helps to prevent expulsion of calcium indicator from the cells was added to a final concentration of 1.25 mM. 90 µL of the dye were loaded into each well of the plate and incubated for 1 h before reading in the FlexStation 3 at 37 °C. Fluorescence was recorded every 2 s (λ excitation = 485 nm, λ emission = 525 nm) for 5 min. After 1 min of baseline recording, 20 µL of the drug, dissolved in HBSS with 1% dimethyl sulfoxide (DMSO) (cat # D2650; Sigma-Aldrich, Melbourne, Australia) was added (final DMSO concentration was 0.1% in well).
We initially determined the effect of PMA, another phorbol ester that is a protein kinase C activator ([Jiang & Fleet, 2012]) on HEK-293 TRPV1 expressing cells.
(A) Response of HEK-293 TRPV1 expressing cells for PMA at various concentration. […] Drugs were added for the duration of the bar; (D) The effects of PUFAs after potentiation of TRPV1 by PMA. […] Changes in [Ca]i are expressed as percentage of the pre-drug baseline, with the response to PMA alone at 5 min subtracted. The black circles represent the response of PUFAs without PMA pretreatment while the pink circles represent the response of PUFAs after PMA potentiation.

The target in assay [2] is T1, human TRPV1. Description: Pre-incubation with PUFAs or capsazepine, then capsaicin (10 nM) response in HEK-293 TRPV1 cells. The following applies: for Effect of pre-treatment on the capsaicin response: 10 µM, 5 min exposure, then capsaicin 10 nM; for Post-capsaicin: response to subsequent capsaicin addition, individual experiments: capsaicin 10 nM after 5 min drug 10 µM; for Post-capsaicin: response to subsequent capsaicin addition, individual experiments / Pre-capsaicin: response to first drug, individual experiments: TRPV1 cells; for Pre-capsaicin: response to first drug, individual experiments: drug 10 µM for 5 min. It is filed as cell-based. On the procedure:
as §1, with “well). […]” for “well).”

A further assay deals with HEK-293 EV cells. Description: Calcium 5 dye [Ca]i assay in HEK-293 empty vector (EV) cells. The following applies: 10 µM; HEK-293 EV cells; percentage of predrug baseline. Type of assay: cell-based, human. In short, it runs like this:
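Tetracycline at 1 µg ml^−1 was added 4 h before testing; cells were loaded with Calcium 5 dye for 1 h and read at 37 °C, with drug added after 1 min baseline (final 0.1% DMSO). The response was the % change from the 60 s baseline after solvent subtraction, and EC50/Emax came from a three-parameter logistic fit, reported as pEC50.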

Assay [3] addresses T1, human TRPV1. As to the kind of experiment: Calcium 5 dye [Ca]i assay in HEK-293 Flp-In T-REx cells expressing TRPV1 (agonist response). Type of assay: cell-based. The following applies: for Elevation of [Ca]i in HEK-293 TRPV1 cells compared with HEK-293 EV cells / Change of Ca5 fluorescence, Mean ± SEM, TRPV1 (10 µM): 10 µM; for Change of Ca5 fluorescence, Mean ± SEM, TRPV1 (10 µM): HEK-293 TRPV1 cells, percentage of predrug baseline; for Change in Ca5 fluorescence, individual experiments (CRC raw data): TRPV1 cells. A digest of the protocol: (§2)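 Tetracycline-induced (1 µg ml^−1, 4 h) HEK-293 T-REx cells loaded with Calcium 5 dye plus 1.25 mM probenecid for 1 h; agonist added after 1 min baseline (0.1% DMSO final), fluorescence (485/525 nm) read every 2 s for 5 min at 37 °C. Response as % change from baseline, solvent-subtracted; EC50/Emax from three-parameter logistic fit, given as pEC50.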

The target of another assay is T2, human TRPA1 (Homo sapiens, UniProt O75762).
T2 construct: Life Technologies (cells); host or cells: Flp-In T-REx HEK-293
As to the kind of experiment: Calcium 5 dye [Ca]i assay in HEK-293 Flp-In T-REx cells expressing TRPA1 (agonist response). The following applies: for Elevation of [Ca]i in HEK-293 TRPA1 cells compared with HEK-293 EV cells: 10 µM (cinnamaldehyde 300 µM); for Change of Ca5 fluorescence, Mean ± SEM, TRPA1 (10 µM): HEK-293 TRPA1 cells, percentage of predrug baseline; for TRPA1 activation at the highest concentration tested: 30 µM; for Emax at 30 µM: HEK293, read-out: Emax ± SEM % TRPA1 (30 µM); for [Ca]i response (change in fluorescence), individual replicates: sheet Figure 4. Type of assay: cell-based. A digest of the protocol:
as §2

T2 sequence (O75762 whole entry): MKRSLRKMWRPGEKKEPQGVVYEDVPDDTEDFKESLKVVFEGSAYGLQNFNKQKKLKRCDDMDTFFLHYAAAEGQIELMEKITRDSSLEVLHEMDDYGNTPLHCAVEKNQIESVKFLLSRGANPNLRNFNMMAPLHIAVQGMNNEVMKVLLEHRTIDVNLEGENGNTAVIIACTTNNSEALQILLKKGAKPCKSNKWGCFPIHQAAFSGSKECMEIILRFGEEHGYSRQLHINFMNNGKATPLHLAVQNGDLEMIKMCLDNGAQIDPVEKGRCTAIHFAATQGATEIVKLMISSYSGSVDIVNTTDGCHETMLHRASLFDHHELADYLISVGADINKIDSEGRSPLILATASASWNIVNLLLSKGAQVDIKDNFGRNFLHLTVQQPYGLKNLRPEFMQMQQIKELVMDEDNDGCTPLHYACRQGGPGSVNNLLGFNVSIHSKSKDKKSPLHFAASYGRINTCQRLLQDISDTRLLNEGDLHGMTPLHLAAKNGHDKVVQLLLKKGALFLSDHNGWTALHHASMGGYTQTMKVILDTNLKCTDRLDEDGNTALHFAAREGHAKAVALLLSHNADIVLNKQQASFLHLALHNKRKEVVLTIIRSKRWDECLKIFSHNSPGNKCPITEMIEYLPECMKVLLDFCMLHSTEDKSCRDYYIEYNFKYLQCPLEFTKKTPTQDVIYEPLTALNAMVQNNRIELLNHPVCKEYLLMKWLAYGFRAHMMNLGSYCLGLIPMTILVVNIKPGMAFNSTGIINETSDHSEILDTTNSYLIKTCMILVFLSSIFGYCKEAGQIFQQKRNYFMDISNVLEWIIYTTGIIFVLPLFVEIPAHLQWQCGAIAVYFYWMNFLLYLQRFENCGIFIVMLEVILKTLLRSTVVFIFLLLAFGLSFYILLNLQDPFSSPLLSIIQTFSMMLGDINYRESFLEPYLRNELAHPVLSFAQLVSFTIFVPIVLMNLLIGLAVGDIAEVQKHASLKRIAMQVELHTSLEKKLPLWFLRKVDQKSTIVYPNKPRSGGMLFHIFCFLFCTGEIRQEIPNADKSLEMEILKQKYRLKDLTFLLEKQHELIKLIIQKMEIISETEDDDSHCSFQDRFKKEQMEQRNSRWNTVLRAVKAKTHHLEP
T1 sequence (Q8NER1 whole entry): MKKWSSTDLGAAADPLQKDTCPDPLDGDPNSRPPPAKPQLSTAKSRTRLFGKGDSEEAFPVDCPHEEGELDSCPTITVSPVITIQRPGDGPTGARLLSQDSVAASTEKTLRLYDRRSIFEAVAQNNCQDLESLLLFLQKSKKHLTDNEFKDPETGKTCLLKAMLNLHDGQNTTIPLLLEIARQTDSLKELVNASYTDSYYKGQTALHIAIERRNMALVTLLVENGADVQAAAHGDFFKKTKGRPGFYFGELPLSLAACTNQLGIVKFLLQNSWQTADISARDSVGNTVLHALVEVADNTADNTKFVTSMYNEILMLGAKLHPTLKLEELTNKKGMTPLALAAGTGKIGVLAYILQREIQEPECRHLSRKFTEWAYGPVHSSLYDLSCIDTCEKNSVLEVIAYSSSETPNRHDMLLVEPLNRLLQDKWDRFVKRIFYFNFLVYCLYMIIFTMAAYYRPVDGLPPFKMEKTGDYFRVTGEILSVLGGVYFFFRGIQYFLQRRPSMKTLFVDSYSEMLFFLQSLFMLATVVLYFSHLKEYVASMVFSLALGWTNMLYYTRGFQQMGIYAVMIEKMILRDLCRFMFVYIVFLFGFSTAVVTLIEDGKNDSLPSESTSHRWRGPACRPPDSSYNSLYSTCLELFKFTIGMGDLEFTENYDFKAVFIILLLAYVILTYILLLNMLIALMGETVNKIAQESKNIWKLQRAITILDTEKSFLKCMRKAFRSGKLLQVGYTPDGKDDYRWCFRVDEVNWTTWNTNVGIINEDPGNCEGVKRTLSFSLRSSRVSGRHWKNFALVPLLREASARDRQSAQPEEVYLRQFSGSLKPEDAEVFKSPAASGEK

For `CC/C=C\C/C=C\C/C=C\C/C=C\C/C=C\CCCC(=O)O` [EPA, eicosapentaenoic acid], the “TRPV1 response after exposure to PMA” value on human TRPV1 [1] (PMA 100 nM, 5 min pretreatment) is listed as “only observed when a phorbol ester was present”. Further, on human TRPV1 [1] (PUFA 10 µM after PMA 100 nM for 5 min, response to PMA alone subtracted), the “Drugs post-PMA, individual experiments” value is 49.2015 and 39.5321 and 37.0404 and 36.9714 and 31.5302 and 32.9212. Further, the “Drugs alone, individual experiments” value at human TRPV1 [1] (PUFA 10 µM without PMA pretreatment, TRPV1 cells) is 7.525 and 11.4184 and 9.766 and 10.5311 and 6.999 and 3.475 and 2.716 and 6.787 and 18.8884. For the same molecule, the “Effect of pre-treatment on the capsaicin response” value (“Effect of pre-treatment” below) at human TRPV1 [2] is on record as “did not affect”. Moreover, at human TRPV1 [2], the “Post-capsaicin: response to subsequent capsaicin addition, individual experiments” value (shortened to “Post-capsaicin: response”) was 203.333 and 227.843 and 146.783 and 264.915 and 237.782 and 308.835. In addition, the “Pre-capsaicin: response to first drug, individual experiments” value (“Pre-capsaicin: response to first drug” below) at human TRPV1 [2] is 16.1107 and 14.1511 and 10.793 and 4.456 and 14.6833 and 13.0981. The “Change of Ca5 fluorescence, Mean ± SEM, EV (10 µM)” value in the assay with HEK-293 EV cells is given as 14 ± 5%. Moreover, the “Elevation of [Ca]i in HEK-293 TRPV1 cells compared with HEK-293 EV cells” value on human TRPV1 [3] is “did not produce a notable change”. For the same molecule, at human TRPV1 [3], the “Change of Ca5 fluorescence, Mean ± SEM, TRPV1 (10 µM)” value is reported as 16 ± 5%. Moreover, the Emax at 30 µM worked out at 34 ± 5% on human TRPV1 [3] (HEK293, read-out: Emax ± SEM % TRPV1 (30 µM)) and 232 ± 67% on human TRPA1 (highest tested concentration (30 µM) or derived from concentration-response curves (cinnamaldehyde)). For the same molecule, the “Change in Ca5 fluorescence, individual experiments (CRC raw data)” value at human TRPV1 [3] (log concentration -4.52288 (M)) was 41.79 and 35.9904 and 24.921 and 28.9142 and 55.0634 and 19.9806; on human TRPV1 [3] (log concentration -5 (M)), 41.213 and 9.61 and 11.6653 and 7.673 and 15.0259 and 7.993; on human TRPV1 [3] (log concentration -5.52288 (M)), 10.434 and 4.673 and 8.042 and 0.3072; on human TRPV1 [3] (log concentration -6 (M)), 6.783 and 4.449 and 9.084 and 5.542 and 3.583 and -0.1759; at human TRPV1 [3] (log concentration -6.52288 (M)), 4.775 and 5.179 and 8.63 and 0.2635; at human TRPV1 [3] (log concentration -7 (M)) it was 4.257 and 3.906 and 5.164 and 0.2974. Further, the “Elevation of [Ca]i in HEK-293 TRPA1 cells compared with HEK-293 EV cells” value on human TRPA1 is “did not produce a change”. Besides, the “Change of Ca5 fluorescence, Mean ± SEM, TRPA1 (10 µM)” value on human TRPA1 is on record as 58 ± 42%. Also, at human TRPA1, the “TRPA1 activation at the highest concentration tested” value was “activated TRPA1”. Also, the “[Ca]i response (change in fluorescence), individual replicates” value at human TRPA1 (concentration -4.52288 (log)) is 377.608 and 117.826 and 193.269 and 60.6586 and 155.376 and 486.394; on human TRPA1 (concentration -5 (log)), 17.4998 and 14.5924 and 9.889 and 12.76 and 22.7093 and 269.088; on human TRPA1 (concentration -5.52288 (log)) it was 2.522 and 3.13 and 3.703 and 4.731; at human TRPA1 (concentration -6 (log)) it was 1.85 and 3.994 and 3.577 and 9.657 and 3.961 and 6.207; on human TRPA1 (concentration -6.52288 (log)), 1.392 and 2.613 and 2.728 and 11.1533; on human TRPA1 (concentration -7 (log)), 0.08029 and 3.966 and 3.106 and 5.407.
As for `CCCCC/C=C\C/C=C\C/C=C\CCCCC(=O)O` [γ-LA, γ-linolenic acid], the “Effect of pre-treatment” value at human TRPV1 [2] is “did not affect”. Also, the “Post-capsaicin: response” value on human TRPV1 [2] (listed as GLA) is 270.139 and 251.245 and 119.532 and 316.43 and 265.849 and 338.308. The “Pre-capsaicin: response to first drug” value on human TRPV1 [2] (listed as GLA) was 11.5745 and 14.3439 and 14.381 and 3.4398 and 10.3554 and 15.8417. For the same molecule, the “Change of Ca5 fluorescence, Mean ± SEM, EV (10 µM)” value in the assay on HEK-293 EV cells was 9 ± 2%. The “Elevation of [Ca]i in HEK-293 TRPV1 cells compared with HEK-293 EV cells” value on human TRPV1 [3] is “did not produce a notable change”. In addition, on human TRPV1 [3], the “Change of Ca5 fluorescence, Mean ± SEM, TRPV1 (10 µM)” value stood at 10 ± 1%. Moreover, the “Change in Ca5 fluorescence, individual experiments (CRC raw data)” value at human TRPV1 [3] (log concentration -4.52288 (M), listed as GLA) was 27.0827 and 92.1911 and 21.8805 and 27.2504 and 40.8812 and 31.4387; at human TRPV1 [3] (log concentration -5 (M), listed as GLA), 15.417 and 9.771 and 8.536 and 10.7081 and 5.47 and 8.301; at human TRPV1 [3] (log concentration -5.52288 (M), listed as GLA), 2.0403 and 1.257 and 4.6526 and 4.706 and 2.248 and 2.361; on human TRPV1 [3] (log concentration -6 (M), listed as GLA) it was 3.899 and 2.392 and 3.26 and 4.994 and 2.614 and 2.892; on human TRPV1 [3] (log concentration -6.52288 (M), listed as GLA), -0.6308 and 4.773 and 3.415 and 10.3597 and 1.966 and 2.796; on human TRPV1 [3] (log concentration -7 (M), listed as GLA) it was 0.359 and 3.081 and 7.321 and 1.04 and 2.553. Also, on human TRPA1, the “Elevation of [Ca]i in HEK-293 TRPA1 cells compared with HEK-293 EV cells” value is on record as “did not produce a change”. Further, at human TRPA1, the “Change of Ca5 fluorescence, Mean ± SEM, TRPA1 (10 µM)” value was 112 ± 61%. At human TRPA1, the “TRPA1 activation at the highest concentration tested” value is “activated TRPA1”. The Emax at 30 µM on human TRPA1 came out at 255 ± 73%. Moreover, the “[Ca]i response (change in fluorescence), individual replicates” value was 481.429 and 335.153 and 71.3202 and 67.3187 and 162.48 and 414.065 at human TRPA1 (concentration -4.52288 (log), listed as GLA); 268.343 and 23.3711 and 10.7965 and 8.59 and 23.2369 and 338.225 on human TRPA1 (concentration -5 (log), listed as GLA); 2.578 and 5.507 and 0.9073 and 7.069 and 268.915 at human TRPA1 (concentration -5.52288 (log), listed as GLA); 0.8222 and 0.07304 and 2.068 and 3.637 and 4.16 and 7.0167 on human TRPA1 (concentration -6 (log), listed as GLA); 0.1101 and 1.014 and 7.308 and 0.3513 and 4.285 and 9.421 at human TRPA1 (concentration -6.52288 (log), listed as GLA); 0.1516 and -0.4942 and 5.21 and 2.462 and 4.3545 and 5.724 on human TRPA1 (concentration -7 (log), listed as GLA).
On to `Oc1cc2c(cc1O)CN(C(=S)NCCc1ccc(Cl)cc1)CCC2` [capsazepine, reference compound], for which the “Effect of pre-treatment” value on human TRPV1 [2] is “prevented”. For the same molecule, on human TRPV1 [2] (listed as CAPZ), the “Post-capsaicin: response” value is 10.3375 and -4.09 and 24.8571 and 12.9593 and -2.666 and 6.069; the “Pre-capsaicin: response to first drug” value was 25.3514 and 3.867 and 12.8382 and 10.4656 and 4.742 and 37.2822.
